Source: the NIST ThermoML archive (doi:10.1016/j.fluid.2008.09.004)

Legend:
[1] = excess molar enthalpy (molar enthalpy of mixing); xn = mol fraction of the nth substance listed; conditions: 303.15 K, 101 kPa, Liquid, Calvet calorimetry
[2] = xn = mol fraction of the nth substance listed; conditions: 101 kPa, Liquid, Vibrating tube method

CCCCCCn1cc[n+](C)c1.F[B-](F)(F)F [1-hexyl-3-methylimidazolium tetrafluoroborate] + CCO
[1]
Conditions	excess molar enthalpy [kcal/mol]
x1 = 0.101	0.322
x1 = 0.2037	0.489
x1 = 0.3018	0.576
x1 = 0.3977	0.614
x1 = 0.4988	0.592
x1 = 0.6045	0.522
x1 = 0.6901	0.443
x1 = 0.7932	0.314
x1 = 0.8733	0.203

mass density [kg/m3], [2]
Conditions	x1 = 0.1052	x1 = 0.2011	x1 = 0.2832	x1 = 0.3846	x1 = 0.4943	x1 = 0.5486	x1 = 0.6882	x1 = 0.7748	x1 = 0.7988	x1 = 0.8521
293.15 K	904.3	969.7	1009.1	1045.5	1075.1	1086.6	1111.6	1124	1127.1	1133.6
298.15 K	900.2	965.8	1005.2	1041.7	1071.4	1082.9	1108	1120.5	1123.6	1130.1
303.15 K	896.2	961.8	1001.4	1037.9	1067.7	1079.3	1104.4	1117	1120.1	1126.6
308.15 K	892.1	957.9	997.6	1034.2	1064	1075.6	1100.9	1113.5	1116.6	1123.1
313.15 K	888	954	993.7	1030.4	1060.4	1072	1097.4	1110	1113.1	1119.7
318.15 K	883.9	950	–	–	–	–	–	–	–	–
